{
  "source": "ChEMBL document CHEMBL1128818",
  "about": "“Synthesis and antiplatelet activity of DMP 757 analogs” (Bioorg Med Chem Lett, 1995)",
  "molecular_target": "Integrin alpha-IIb/beta-3 (Homo sapiens, UniProt P05106+P08514)",
  "sequence (P05106 27-788 limits assumed)": "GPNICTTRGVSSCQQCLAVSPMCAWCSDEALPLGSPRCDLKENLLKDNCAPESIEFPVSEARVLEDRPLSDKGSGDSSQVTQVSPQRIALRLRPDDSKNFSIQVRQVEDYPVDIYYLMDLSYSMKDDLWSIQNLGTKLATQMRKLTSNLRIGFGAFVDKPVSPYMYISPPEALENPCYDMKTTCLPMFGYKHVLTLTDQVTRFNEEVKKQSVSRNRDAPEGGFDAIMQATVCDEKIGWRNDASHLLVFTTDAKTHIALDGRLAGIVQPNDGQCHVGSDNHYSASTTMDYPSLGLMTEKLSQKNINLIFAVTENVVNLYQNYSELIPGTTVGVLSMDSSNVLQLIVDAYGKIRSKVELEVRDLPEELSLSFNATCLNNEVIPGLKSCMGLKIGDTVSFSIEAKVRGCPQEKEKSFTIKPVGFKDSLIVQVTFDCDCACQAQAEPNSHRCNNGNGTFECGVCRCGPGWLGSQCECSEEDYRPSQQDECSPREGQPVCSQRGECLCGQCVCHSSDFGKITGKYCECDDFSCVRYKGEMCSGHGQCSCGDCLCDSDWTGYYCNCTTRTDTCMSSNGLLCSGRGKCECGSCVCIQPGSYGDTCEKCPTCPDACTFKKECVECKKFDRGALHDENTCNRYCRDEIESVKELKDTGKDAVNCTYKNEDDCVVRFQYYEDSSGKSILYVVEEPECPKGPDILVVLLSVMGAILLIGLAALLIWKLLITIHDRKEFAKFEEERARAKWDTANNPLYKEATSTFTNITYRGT",
  "sequence (P08514 32-887 limits assumed)": "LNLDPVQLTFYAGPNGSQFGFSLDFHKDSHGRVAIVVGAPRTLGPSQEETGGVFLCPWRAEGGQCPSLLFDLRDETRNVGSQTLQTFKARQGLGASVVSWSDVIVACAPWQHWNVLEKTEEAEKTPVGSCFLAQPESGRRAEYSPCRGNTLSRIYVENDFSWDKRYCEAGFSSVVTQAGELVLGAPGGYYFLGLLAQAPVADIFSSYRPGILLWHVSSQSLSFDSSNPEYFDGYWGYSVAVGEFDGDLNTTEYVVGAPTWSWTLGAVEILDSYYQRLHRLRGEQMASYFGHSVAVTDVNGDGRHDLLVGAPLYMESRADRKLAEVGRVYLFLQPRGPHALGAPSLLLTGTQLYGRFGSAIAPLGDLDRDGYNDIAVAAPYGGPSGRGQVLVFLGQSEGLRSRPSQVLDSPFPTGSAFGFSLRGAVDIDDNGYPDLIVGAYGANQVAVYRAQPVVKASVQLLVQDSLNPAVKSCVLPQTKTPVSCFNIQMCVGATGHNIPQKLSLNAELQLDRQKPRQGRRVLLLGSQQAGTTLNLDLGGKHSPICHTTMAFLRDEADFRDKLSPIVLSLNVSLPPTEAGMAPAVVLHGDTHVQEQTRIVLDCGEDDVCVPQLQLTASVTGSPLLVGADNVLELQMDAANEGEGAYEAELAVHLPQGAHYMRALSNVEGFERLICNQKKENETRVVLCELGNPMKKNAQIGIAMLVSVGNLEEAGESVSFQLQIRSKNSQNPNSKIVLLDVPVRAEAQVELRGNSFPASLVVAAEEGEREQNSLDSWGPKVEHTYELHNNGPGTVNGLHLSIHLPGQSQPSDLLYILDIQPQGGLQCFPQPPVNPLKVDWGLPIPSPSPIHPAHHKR",
  "sequence (P08514 891-1039 limits assumed)": "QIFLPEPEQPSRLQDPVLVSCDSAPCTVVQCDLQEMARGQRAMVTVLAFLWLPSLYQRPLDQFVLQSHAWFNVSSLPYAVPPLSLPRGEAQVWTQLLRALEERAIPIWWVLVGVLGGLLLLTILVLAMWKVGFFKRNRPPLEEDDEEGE",
  "assay": "Inhibition of platelet aggregation in vitro using fibrinogen binding assay",
  "data": [
    {"smiles": "CC(C)[C@H]1NC(=O)c2cccc(c2F)CNC(=O)[C@H](CC(=O)O)NC(=O)CNC(=O)[C@H](CCCN=C(N)N)N(C)C1=O", "values": [
      {"measurement": "IC50", "value": 4, "unit": "nM"}
    ]}
  ]
}
